# Results reported in ChEMBL document CHEMBL4392859, “Xylo-C-nucleosides with a pyrrolo[2,1-f][1,2,4]triazin-4-amine heterocyclic base: Synthesis and antiproliferative properties” (Bioorg Med Chem Lett, 2019).
# How the values were obtained:
# Type in all cases: functional, cell-based
# [1] = tested on: CAPAN-1; test: Antiproliferative activity against human Capan1 cells
# [2] = Antiproliferative activity against human HAP1 cells
# [3] = tested on: Z-138; test: Antiproliferative activity against human Z138 cells
# [4] = Antiproliferative activity against human DND41 cells
# [5] = tested on: HCT-116; test: Antiproliferative activity against human HCT116 cells
# [6] = tested on: HL-60; test: Antiproliferative activity against human HL60 cells
# [7] = tested on: K562; test: Antiproliferative activity against human K562 cells
# [8] = tested on: NCI-H460; test: Antiproliferative activity against human NCI-H460 cells
# [9] = Homo sapiens, CAPAN-1, read-out: IC50
# [10] = Homo sapiens, HAP1, read-out: IC50
# [11] = Homo sapiens, Z-138, read-out: IC50
# [12] = Homo sapiens, DND41, read-out: IC50
# [13] = Homo sapiens, HCT-116, read-out: IC50
# [14] = Homo sapiens, HL-60, read-out: IC50
# [15] = Homo sapiens, K562, read-out: IC50
# [16] = Homo sapiens, NCI-H460, read-out: IC50
Structure (SMILES),"IC50 [1, 9]","IC50 [2, 10]","IC50 [3, 11]","IC50 [4, 12]","IC50 [5, 13]","IC50 [6, 14]","IC50 [7, 15]","IC50 [8, 16]",IC50 ([1]; capan-1),IC50 [2],IC50 ([3]; z-138),IC50 [4],IC50 ([5]; hct-116),IC50 ([6]; hl-60),IC50 ([7]; k562),IC50 ([8]; nci-h460)
Nc1ncnn2c([C@@H]3O[C@H](CO)[C@H](O)[C@H]3O)ccc12,2700 nM,9.3 µM,4000 nM,2800 nM,8400 nM,1900 nM,4300 nM,2000 nM,–,–,–,–,–,–,–,–
CC(=O)O[C@@]12CO[C@@H]1C[C@H](O)[C@@]1(C)C(=O)[C@H](O)C3=C(C)[C@@H](OC(=O)[C@H](O)[C@@H](NC(=O)OC(C)(C)C)c4ccccc4)C[C@@](O)([C@@H](OC(=O)c4ccccc4)[C@H]21)C3(C)C [DOCETAXEL ANHYDROUS],19 nM,0.018 µM,9 nM,14 nM,4 nM,47 nM,16 nM,7 nM,–,–,–,–,–,–,–,–
N#C[C@@]1(c2ccc3c(N)ncnn23)O[C@H](CO)[C@H](O)[C@H]1O,–,–,–,–,–,–,–,–,Not Active,Not Active,Not Active,Not Active,Not Active,Not Active,Not Active,Not Active
CN[C@@H]1C[C@H]2O[C@@](C)([C@@H]1OC)n1c3ccccc3c3c4c(c5c6ccccc6n2c5c31)C(=O)NC4 [STAUROSPORINE],48 nM,–,18 nM,23 nM,37 nM,19 nM,83 nM,–,–,–,–,–,–,–,–,–
